One series concerns Intestinal Tract of Rats. The experiment in a line: Test for ability to cause gastro-intestinal erosion in rats. The class given is in vivo, Male Lai: COX (SD) rats. The method, then:
Male Lai: COX (SD) rats weighing 200-250 gm were acclimated for one week under standard laboratory conditions. Each animal was individually indentified and body weights were determined on the first day of the test and again at autopsy. The test materials, suspended in aqueous carboxymethyl cellulose vehicle, were administered orally once daily in a volume of 1.0ml per 100g body weight for four consecutive days. Food was withdrawn from the animals following the last dose and the animals were sacrificed 24 hours later. At necropsy, the stomach and intestines were removed and observed for lesions. […] The incidence of lesions for each dose level tested is reported.

In series [1] the test system is Adjuvant-Induced Arthritis in the Rat. The experiment in a line: Rat adjuvant-induced arthritis assay. The class given is in vivo, Female Crl:CD, br rats. As to conditions: oral. As for the experimental part: Female Crl:CD, br rats weighting 160-180 gm were randomly distributed to treatment groups of 12 animals, and were given food and water ad libitum. Test materials were prepared fresh weekly as suspensions in aqueous carboxymethyl cellulose. Animals were orally dosed with volumes of 1 ml twice per day Monday through Friday, and with 2 ml once per day on Saturdays and Sundays. At time 0, rats were injected intradermally in the proximal quarter of the tail with 0.1 ml of a mineral oil suspension of heat killed and dried Mycobacterium butyricum (Difco) at a concentration of 10 mg/ml. After sacrifice, the hind paws of each animal were removed and weighed.

For series [2], the system named is Intestinal Ulceration in Rats Induced by the Subcutaneous Administration of Indomethacin. The experiment in a line: Protective effect against intestinal ulceration induced by subcutaneous indomethacin. It counts as in vivo, Male Crl:D,br rats. To be noted: indomethacin 4 mg/kg/day s.c. for four days, score 0-10, vehicle 5.8 ± 1.8. As for the experimental part: Male Crl:D,br rats weighing approximately 200 gm received indomethacin, 4 mg/kg, injected subcutaneously each day for four consecutive days to induce the formation of erosions and ulcers of the small intestine. Food was removed following the last dose of indomethacin and the rats were necropsied 18-24 hours later. Erosions of small intestine were scored as follows: 0 - no detectable lesions 2 - small ulcerattions (1-15) less than 1 mm 4 - small ulcerations plus 1-10 medium (2-3 mm) ulcerations 6 - predominantly medium ulceratiaons plus 2-5 severe (>4mm) ulcers without evidence of perforation 8 - many (>20) medium and severe ulcerations with evidence of perforation 10 - animals dying during assay as a consequence of intestinal perforation and septicemia.
Agents to be tested for protective effects were administered orally in an aqueous vehicle, with one-half the daily dose being administered 4 hours prior to indomethacin injection and one half the daily dose being administered at the time of indomethacin injection.

Series [3] can be described thus: 21-day oral toxicity observation in rats. The class given is in vivo, male Hsd:(SD)BR rats. To be noted: orally twice daily for 21 consecutive days, total daily dose 100 mg/Kg. The method, then:
Five male Hsd:(SD)BR rats weighing 205-215 g were acclimated for approximately one week prior to use under standard laboratory conditions. Naproxen thiocholine ester iodide, suspended in aqueous carboxymethylcellulose vehicle was administered orally twice daily in a volume of 1.0 ml per 200 g body weight for 21 consecutive days at a total daily dose of 100 mg/Kg.

The mark [4] stands for this setting: daily dose 25 mg/kg orally, four consecutive days, erosions graded 0-10, five rats.
The mark [5] stands for this setting: daily dose 5 mg/kg orally, four consecutive days, erosions graded 0-10, five rats.
The mark [6] stands for this setting: daily dose 200 mg/kg orally, four consecutive days, erosions graded 0-10, five rats.
The mark [7] stands for this setting: daily dose 300 mg/kg orally, four consecutive days, erosions graded 0-10, five rats, 300 mg/kg.
[8] abbreviates: daily dose 400 mg/kg orally, four consecutive days, erosions graded 0-10, five rats, 400 mg/kg.

SMILES strings stand for the structures. Several values for one entry are separate records, joined by “and”; a condition that tells them apart may be missing. Equal entries are not always repeated.

The source of these data is patent EP0289262A2, “Omega-quaternary ammonium alkyl esters and thioesters of acidic nonsteroidal antiinflammatory drugs” (priority 1987, dated 1988).

For `COc1ccc2c(c1)c(CC(=O)SCC[N+](C)(C)C)c(C)n2C(=O)c1ccc(Cl)cc1` [Indomethacin thiocholine ester iodide, indomethacin thiocholine ester iodide], the “Mean Intestinal Ulcer Score ± 1Std. Dev.” value with Intestinal Tract of Rats (setting [4]) is recorded as 0; in the series with Intestinal Tract of Rats (daily dose 100 mg/kg orally, four consecutive days, erosions graded 0-10, five rats), 0. Also, the “Percent Inhibition of Hind Paw Weight” value in series [1] (daily dose 7.0 mg/kg) is listed as 15%; in series [1] (daily dose 14 mg/kg), 59%.
In the case of `COc1ccc2c(c1)c(CC(=O)O)c(C)n2C(=O)c1ccc(Cl)cc1` [Indomethacin, indomethacin, reference compound], the “Mean Intestinal Ulcer Score ± 1Std. Dev.” value in the series on Intestinal Tract of Rats (setting [5]) is listed as 7.2 ± 1.9. For the same molecule, the “Percent Inhibition of Hind Paw Weight” value in series [1] (daily dose 2.0 mg/kg) was 75%.
Turning to `C[N+](C)(C)CCSC(=O)C1CCn2c(C(=O)c3ccccc3)ccc21` (centres unmarked) [Ketorolac thiocholine ester iodide, ketorolac thiocholine ester iodide], the “Mean Intestinal Ulcer Score ± 1Std. Dev.” value in the series with Intestinal Tract of Rats (setting [4]) is 2.0 ± 2.0; in the series on Intestinal Tract of Rats (daily dose 50 mg/kg orally, four consecutive days, erosions graded 0-10, five rats) it was 6.4 ± 0.9; with Intestinal Tract of Rats (daily dose 75 mg/kg orally, four consecutive days, erosions graded 0-10, five rats) it was 7.2 ± 1.1. The “Percent Inhibition of Hind Paw Weight” value in series [1] (daily dose 1.0 mg/kg) is 10%; in series [1] (daily dose 5.0 mg/kg, 5 mg/kg), 79% and 56%.
In the case of `O=C(c1ccccc1)c1ccc2n1CCC2C(=O)O` (centres unmarked) [Ketorolac, ketorolac, reference compound], the “Mean Intestinal Ulcer Score ± 1Std. Dev.” value was found to be 1.9 ± 0.9 in the series on Intestinal Tract of Rats (setting [5]); 4.8 ± 1.7 in the series with Intestinal Tract of Rats (rat, in vivo, po, 10 mg/kg); 7.4 ± 1.7 in the series with Intestinal Tract of Rats (rat, in vivo, po, 20 mg/kg). Further, the “Percent Inhibition of Hind Paw Weight” value turned out to be 5% in series [1] (daily dose 0.1 mg/kg), 14% in series [1] (daily dose 0.5 mg/kg) and 59% in series [1] (daily dose 2.5 mg/kg).
In the case of `COc1ccc2cc([C@H](C)C(=O)SCC[N+](C)(C)C)ccc2c1` [Naproxen thiocholine ester chloride, naproxen thiocholine ester chloride], the entries for the “Mean Intestinal Ulcer Score ± 1Std. Dev.” value in the series with Intestinal Tract of Rats (setting [6]), in the series with Intestinal Tract of Rats (setting [7]) and in the series on Intestinal Tract of Rats (setting [8]) were 0.4 ± 0.9, 1.6 ± 0.9 and 5.6 ± 2.2, respectively.
Regarding `COc1ccc2cc([C@H](C)C(=O)SCC[N+](C)(C)C)ccc2c1` [Naproxen thiocholine ester iodide, NAPROXEN THIOCHOLINE ESTER IODIDE], the “Mean Intestinal Ulcer Score ± 1Std. Dev.” value came to 0 in the series with Intestinal Tract of Rats (daily dose 150 mg/kg orally, four consecutive days, erosions graded 0-10, five rats); 0.4 ± 0.9 in the series with Intestinal Tract of Rats (setting [6]); 1.6 ± 1.7 with Intestinal Tract of Rats (daily dose 250 mg/kg orally, four consecutive days, erosions graded 0-10, five rats); 3.0 ± 1.7 with Intestinal Tract of Rats (setting [7]); 7.2 ± 1.1 in the series with Intestinal Tract of Rats (setting [8]). Also, the “Percent Inhibition of Hind Paw Weight” value in series [1] (daily dose 7.0 mg/kg) is 40%; in series [1] (daily dose 10 mg/kg), 69%; in series [1] (daily dose 14 mg/kg, 14 mg/kg), 40% and 53%; in series [1] (daily dose 28 mg/kg, 28 mg/kg), 51% and 75%. Further, the “Intestinal Erosion Score Mean ± S.D.” value is listed as 4.0 ± 2.4 in series [2] (oral dose 5 mg/kg/day), 2.4 ± 0.9 in series [2] (oral dose 10 mg/kg/day), 1.8 ± 2.4 in series [2] (oral dose 20 mg/kg/day) and 0.8 ± 1.1 in series [2] (oral dose 50 mg/kg/day). The “gross signs of toxicity” value in series [3] was “did not produce any gross signs of toxicity”.
As to `COc1ccc2cc([C@H](C)C(=O)O)ccc2c1` [Naproxen, 2-(6′-methoxy-2′-naphthyl)propionic acid, reference compound], the “Mean Intestinal Ulcer Score ± 1Std. Dev.” value in the series with Intestinal Tract of Rats (daily dose 20 mg/kg orally, four consecutive days, erosions graded 0-10, five rats) was 1.6 ± 0.9; with Intestinal Tract of Rats (setting [4]), 3.2 ± 1.1; in the series on Intestinal Tract of Rats (daily dose 30 mg/kg orally, four consecutive days, erosions graded 0-10, five rats) it was 6.4 ± 1.7; in the series with Intestinal Tract of Rats (daily dose 35 mg/kg orally, four consecutive days, erosions graded 0-10, five rats) it was 7.6 ± 0.9. Besides, the “Percent Inhibition of Hind Paw Weight” value came to 22% in series [1] (daily dose 1.4 mg/kg), 70% in series [1] (daily dose 3.5 mg/kg) and 77% in series [1] (daily dose 7.0 mg/kg).
